Laboratory results as given in publication PMC12669672, “Structural insights into selective and dual antagonism of EP2 and EP4 prostaglandin receptors” (The EMBO Journal, 2025).
Values joined by “and” are separate entries in the source; they are usually repeats but may differ in a detail not shown here. Identical values can stand only once.

What was measured:
Type in all cases: cell-based
EP2 M116A = target: T1, EP2 M116A (Homo sapiens, UniProt P43116, M116A); assay: GloSensor cAMP assay, antagonism of PGE2-induced cAMP; conditions: 1 h, single experiments 1st-3rd, Fig. 3D, read-out: % cAMP activity (normalized to WT)
T1 construct: The full-length EP2 or EP4 was cloned into the pcDNA3.1 vector; FLAG (N); expressed in transfected cells; host or cells: AD293 cells
Summary of the method: (§1)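 Read-out is GloSensor luminescence from AD293 cells co-expressing FLAG-tagged EP2 variant and GloSensor22F biosensor, transfected at a 1:1 plasmid ratio. Cells were plated at 4000 per well in CO2-independent medium containing 2% cAMP reagent, incubated 1 h at 37 °C, then read.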

EP2 S305A = target: T2, EP2 S305A (Homo sapiens, UniProt P43116, S305A); assay: as above; conditions: single experiments 1st-3rd
T2 construct: The full-length EP2 or EP4 was cloned into the pcDNA3.1 vector; FLAG (N); expressed in transfected cells; host or cells: AD293 cells
Summary of the method: as §1

EP2 S308A = target: T3, EP2 S308A (Homo sapiens, UniProt P43116, S308A); assay: as above; conditions: single experiments 1st-3rd
T3 construct: The full-length EP2 or EP4 was cloned into the pcDNA3.1 vector; FLAG (N); expressed in transfected cells; host or cells: AD293 cells
Summary of the method: as §1

EP2 S86A = target: T4, EP2 S86A (Homo sapiens, UniProt P43116, S86A); assay: as above; conditions: single experiments 1st-3rd
T4 construct: The full-length EP2 or EP4 was cloned into the pcDNA3.1 vector; FLAG (N); expressed in transfected cells; host or cells: AD293 cells
Summary of the method: as §1

EP2 T82A = target: T5, EP2 T82A (Homo sapiens, UniProt P43116, T82A); assay: as above; conditions: 1 h, single experiments 1st-3rd, Fig. 3D, read-out: % cAMP activity (normalized to WT)
T5 construct: The full-length EP2 or EP4 was cloned into the pcDNA3.1 vector; FLAG (N); expressed in transfected cells; host or cells: AD293 cells
Summary of the method: as §1

EP2 W186A = target: T6, EP2 W186A (Homo sapiens, UniProt P43116, W186A); assay: as above; conditions: 1 h, single experiments 1st-3rd, Fig. 3D, read-out: % cAMP activity (normalized to WT)
T6 construct: The full-length EP2 or EP4 was cloned into the pcDNA3.1 vector; FLAG (N); expressed in transfected cells; host or cells: AD293 cells
Summary of the method: as §1

EP2-I85V = target: T7, EP2-I85V (Homo sapiens, UniProt P43116, I85V); assay: GloSensor cAMP assay, antagonism of PGE2-induced cAMP, chimeric studies; conditions: single experiments 1st-3rd
T7 construct: The full-length EP2 or EP4 was cloned into the pcDNA3.1 vector; FLAG (N); expressed in transfected cells; host or cells: AD293 cells
Protocol: (§2) The full-length EP2 or EP4 was cloned into the pcDNA3.1 vector (Invitrogen), incorporating an N-terminal FLAG tag. AD293 cells were seeded in six-well plates containing DMEM supplemented with 10% dialyzed FBS 1 day prior to transfection. Following overnight growth, cells were transfected with a 1:1 ratio of receptor construct and GloSensor22F cAMP biosensor (Promega) plasmids.
(§3) Twenty-four hours post-transfection, the cells were transferred to CO2-independent media containing 2% GloSensor cAMP Reagent (Promega) and distributed into 384-well assay plates at a density of 4000 cells per well in 10 μL. […] The plates were then incubated at 37 °C for an additional hour before luminescence measurements were taken using an EnVision plate reader.
(§4) Data analysis was performed using GraphPad Prism software v8.0.1. A nonlinear regression analysis, employing a sigmoidal dose–response model, was conducted to determine the Emax values and half-maximum inhibitory concentrations (IC50) for each compound tested.

EP2-L301I = target: T8, EP2-L301I (Homo sapiens, UniProt P43116, L301I); assay: as above; conditions: single experiments 1st-3rd
T8 construct: The full-length EP2 or EP4 was cloned into the pcDNA3.1 vector; FLAG (N); expressed in transfected cells; host or cells: AD293 cells
Protocol: as §2, §3, §4

EP2-M116L = target: T9, EP2-M116L (Homo sapiens, UniProt P43116, M116L); assay: as above; conditions: single experiments 1st-3rd
T9 construct: The full-length EP2 or EP4 was cloned into the pcDNA3.1 vector; FLAG (N); expressed in transfected cells; host or cells: AD293 cells
Protocol: as §2, §3, §4

[1] = 1 h, PF-04418948 log([M]) -7, Fig. 3D, read-out: % cAMP activity (normalized to WT)
[2] = 1 h, PF-04418948 log([M]) -8, Fig. 3D, read-out: % cAMP activity (normalized to WT)
[3] = 1 h, PF-04418948 log([M]) -10, Fig. 3D, read-out: % cAMP activity (normalized to WT)
[4] = 1 h, PF-04418948 log([M]) -11, Fig. 3D, read-out: % cAMP activity (normalized to WT)
[5] = 1 h, PF-04418948 log([M]) -9, Fig. 3D, read-out: % cAMP activity (normalized to WT)
[6] = 1 h, PF-04418948 log([M]) -12, Fig. 3D, read-out: % cAMP activity (normalized to WT)
[7] = 1 h, ligand log([M]) -5, Fig. S7B, read-out: % cAMP activity (normalized to WT)
[8] = 1 h, ligand log([M]) -6, Fig. S7B, read-out: % cAMP activity (normalized to WT)
[9] = 1 h, ligand log([M]) -7, Fig. S7B, read-out: % cAMP activity (normalized to WT)
[10] = 1 h, ligand log([M]) -8, Fig. S7B, read-out: % cAMP activity (normalized to WT)
[11] = 1 h, ligand log([M]) -9, Fig. S7B, read-out: % cAMP activity (normalized to WT)
[12] = 1 h, ligand log([M]) -10, Fig. S7B, read-out: % cAMP activity (normalized to WT)
[13] = 1 h, ligand log([M]) -12, Fig. S7B, read-out: % cAMP activity (normalized to WT)

T9 sequence (P43116 whole entry M116L): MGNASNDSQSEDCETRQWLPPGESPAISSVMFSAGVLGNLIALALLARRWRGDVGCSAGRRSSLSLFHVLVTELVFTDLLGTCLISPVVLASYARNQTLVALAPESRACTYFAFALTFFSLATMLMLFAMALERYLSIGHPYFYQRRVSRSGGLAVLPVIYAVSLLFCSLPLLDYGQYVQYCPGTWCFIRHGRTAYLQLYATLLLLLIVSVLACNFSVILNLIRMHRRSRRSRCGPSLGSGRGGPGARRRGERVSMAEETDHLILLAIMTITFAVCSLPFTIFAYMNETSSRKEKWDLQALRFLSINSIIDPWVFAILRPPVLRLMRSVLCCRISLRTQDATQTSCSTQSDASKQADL
T4 sequence (P43116 whole entry S86A): as the sequence (P43116 whole entry M116L) above, with S86A, L116M counted along it
T3 sequence (P43116 whole entry S308A): as the sequence (P43116 whole entry M116L) above, with L116M, S308A counted along it
T6 sequence (P43116 whole entry W186A): as the sequence (P43116 whole entry M116L) above, with L116M, W186A counted along it
T5 sequence (P43116 whole entry T82A): as the sequence (P43116 whole entry M116L) above, with T82A, L116M counted along it
T7 sequence (P43116 whole entry I85V): as the sequence (P43116 whole entry M116L) above, with I85V, L116M counted along it
T2 sequence (P43116 whole entry S305A): as the sequence (P43116 whole entry M116L) above, with L116M, S305A counted along it
T1 sequence (P43116 whole entry M116A): as the sequence (P43116 whole entry M116L) above, with L116A counted along it
T8 sequence (P43116 whole entry L301I): as the sequence (P43116 whole entry M116L) above, with L116M, L301I counted along it

For `COc1ccc2cc(OCC3(C(=O)O)CN(C(=O)c4ccc(F)cc4)C3)ccc2c1` [PF-04418948], the remaining activity at 1 µM (EP2 M116A; PF-04418948 log([M]) -6) was 5.4%, the remaining activity at 0.1 µM (EP2 M116A; PF-04418948 log([M]) -7) was 26.1% and the remaining activity at 0.01 µM (EP2 M116A; PF-04418948 log([M]) -8) was 58.4%. The remaining activity at 0.001 µM (EP2 M116A; PF-04418948 log([M]) -9) was 56.2%, the remaining activity at 0.0001 µM (EP2 M116A; PF-04418948 log([M]) -10) was 64.8% and the remaining activity at 10 pM (EP2 M116A; PF-04418948 log([M]) -11) was 75.1%. The remaining activity at 1 pM (EP2 M116A; PF-04418948 log([M]) -12) was 77.8%, the remaining activity at 0.1 µM (EP2 S305A; [1]) was 22.4% and the remaining activity at 0.01 µM (EP2 S305A; [2]) was 45.9%. The remaining activity at 0.0001 µM (EP2 S305A; [3]) was 47.9%, the remaining activity at 10 pM (EP2 S305A; [4]) was 41.3% and the “cAMP activity (∆pIC50 from EP2 WT)” value (EP2 S305A; Fig. 3E) was -1.170 and -1.396 and -1.144. The remaining activity at 0.1 µM (EP2 S308A; [1]) was 27.6%, the remaining activity at 0.01 µM (EP2 S308A; [2]) was 78.6% and the remaining activity at 0.001 µM (EP2 S308A; [5]) was 89.1%. The remaining activity at 0.0001 µM (EP2 S308A; [3]) was 86.2%, the remaining activity at 10 pM (EP2 S308A; [4]) was 84.2% and the remaining activity at 1 pM (EP2 S308A; [6]) was 83.9%. For the same compound, the “cAMP activity (∆pIC50 from EP2 WT)” value (EP2 S308A; Fig. 3E) was -0.810 and -0.830 and -1.090, the remaining activity at 0.01 µM (EP2 S86A; [2]) was 35% and the remaining activity at 0.001 µM (EP2 S86A; [5]) was 61.5%. It also gave a remaining activity at 0.0001 µM (EP2 S86A; [3]) of 63.4%, a remaining activity at 10 pM (EP2 S86A; [4]) of 75.5% and a remaining activity at 1 pM (EP2 S86A; [6]) of 72.4%. The “cAMP activity (∆pIC50 from EP2 WT)” value (EP2 S86A; Fig. 3E) was 0.200 and 0.410 and 0.340, the remaining activity at 1 µM (EP2 T82A; PF-04418948 log([M]) -6) was 9.17% and the remaining activity at 0.1 µM (EP2 T82A; PF-04418948 log([M]) -7) was 19.3%. The remaining activity at 0.01 µM (EP2 T82A; PF-04418948 log([M]) -8) was 47.4%, the remaining activity at 0.001 µM (EP2 T82A; PF-04418948 log([M]) -9) was 55.3% and the remaining activity at 1 µM (EP2 W186A; PF-04418948 log([M]) -6) was 7.94%. For the same compound, the remaining activity at 0.1 µM (EP2 W186A; PF-04418948 log([M]) -7) was 18%, the remaining activity at 0.01 µM (EP2 W186A; PF-04418948 log([M]) -8) was 24.6% and the remaining activity at 0.001 µM (EP2 W186A; PF-04418948 log([M]) -9) was 23.9%. For the same compound, the remaining activity at 0.0001 µM (EP2 W186A; PF-04418948 log([M]) -10) was 24.4%, the remaining activity at 10 pM (EP2 W186A; PF-04418948 log([M]) -11) was 29.3% and the remaining activity at 1 pM (EP2 W186A; PF-04418948 log([M]) -12) was 27.9%. It also gave a remaining activity at 10 µM (EP2-I85V; [7]) of 4.76%, a remaining activity at 1 µM (EP2-I85V; [8]) of 5.53% and a remaining activity at 0.1 µM (EP2-I85V; [9]) of 21.6%. The remaining activity at 0.01 µM (EP2-I85V; [10]) was 78.7%, the remaining activity at 0.001 µM (EP2-I85V; [11]) was 105% and the remaining activity at 0.0001 µM (EP2-I85V; [12]) was 94.6%. For the same compound, the remaining activity at 10 pM (EP2-I85V; 1 h, ligand log([M]) -11, Fig. S7B, read-out: % cAMP activity (normalized to WT)) was 103%, the remaining activity at 1 pM (EP2-I85V; [13]) was 91.7% and the “cAMP activity (∆pIC50 from EP2 WT)” value (EP2-I85V; Appendix Fig. S7A) was -0.301 and -0.398 and -0.280. It also gave a remaining activity at 10 µM (EP2-L301I; [7]) of 20%, a remaining activity at 1 µM (EP2-L301I; [8]) of 51.7% and a remaining activity at 0.1 µM (EP2-L301I; [9]) of 121%. It also gave a remaining activity at 0.01 µM (EP2-L301I; [10]) of 112%, a remaining activity at 0.001 µM (EP2-L301I; [11]) of 117% and a remaining activity at 0.0001 µM (EP2-L301I; [12]) of 113%. The remaining activity at 1 pM (EP2-L301I; [13]) was 108%, the “cAMP activity (∆pIC50 from EP2 WT)” value (EP2-L301I; Appendix Fig. S7A) was -1.743 and -1.549 and -1.608 and the remaining activity at 10 µM (EP2-M116L; [7]) was 11.8%. It also gave a remaining activity at 1 µM (EP2-M116L; [8]) of 12%, a remaining activity at 0.1 µM (EP2-M116L; [9]) of 36.7% and a remaining activity at 0.01 µM (EP2-M116L; [10]) of 98.5%. It also gave a remaining activity at 0.001 µM (EP2-M116L; [11]) of 132%, a remaining activity at 0.0001 µM (EP2-M116L; [12]) of 123% and a remaining activity at 1 pM (EP2-M116L; [13]) of 116%. The “cAMP activity (∆pIC50 from EP2 WT)” value (EP2-M116L; Appendix Fig. S7A) was -0.408 and -0.463 and -0.307.
